For 3 compounds, Activity and IC50 results are on record in ChEMBL document CHEMBL2429776, “Cyclic 3-alkyl pyridinium alkaloid monomers from a New Zealand Haliclona sp. marine sponge” (J Nat Prod, 2013).

The IC50 is the concentration that gives 50% inhibition.

Format in all cases: functional, organism-based
In assay [1] the test system is Enterococcus faecalis. As to the kind of experiment: Antimicrobial activity against Enterococcus faecalis ATCC 19433 at 2 ug after 24 hrs by disk-diffusion assay. In general terms: In agar diffusion tests the substance spreads into inoculated agar from a disc or well.
Assay [2] deals with Candida albicans. The assay can be described thus: Antifungal activity against Candida albicans ATCC 10231 at 20 ug after 24 hrs by disk-diffusion assay.
In assay [3] the test system is Enterococcus faecalis. The assay can be described thus: Antimicrobial activity against Enterococcus faecalis ATCC 19433 at 20 ug after 24 hrs by disk-diffusion assay.
For assay [4], the system named is Candida albicans. The assay can be described thus: Antifungal activity against Candida albicans ATCC 10231 at 8 ug after 24 hrs by disk-diffusion assay.
In assay [5] the test system is Candida albicans. As to the kind of experiment: Antifungal activity against Candida albicans ATCC 10231 at 2 ug after 24 hrs by disk-diffusion assay.
A further assay deals with Saccharomyces cerevisiae. As to the kind of experiment: Antifungal activity against Saccharomyces cerevisiae YCG 117 after 18 hrs. The note with it: YCG 117, 18 h.
For assay [6], the system named is Enterococcus faecalis. As to the kind of experiment: Antimicrobial activity against Enterococcus faecalis ATCC 19433 at 8 ug after 24 hrs by disk-diffusion assay.

Each structure is given as a SMILES string. Calls of active or inactive are those of the source. The calls are words filed in the database; no cut-off is given here.

As for `C1=C\CCCCC[n+]2cccc(c2)CCCCCC/1`, the outcome in the assay with Enterococcus faecalis [1], in the assay on Candida albicans [2], in the assay on Enterococcus faecalis [3], in the assay with Candida albicans [4], in the assay with Candida albicans [5] and with Enterococcus faecalis [6] was inactive. The compound further displayed an IC50 in the assay with Saccharomyces cerevisiae of 1.5 µg/mL.
As to `c1cc2c[n+](c1)CCCCCCCCCCCCC2`, the outcome in the assay with Enterococcus faecalis [1], in the assay on Candida albicans [2], with Enterococcus faecalis [3], in the assay with Candida albicans [4], in the assay on Candida albicans [5] and in the assay with Enterococcus faecalis [6] was inactive. Also, in the assay with Saccharomyces cerevisiae, inhibition was half-maximal at 1.5 µg/mL (IC50).
For `C1=C\CCCCCC[n+]2cccc(c2)CCCCCC/1`, the outcome in the assay on Enterococcus faecalis [1], with Candida albicans [2], in the assay on Enterococcus faecalis [3], with Candida albicans [4], in the assay on Candida albicans [5] and with Enterococcus faecalis [6] was inactive. Also, half-maximal inhibition in the assay with Saccharomyces cerevisiae (IC50) required 1.5 µg/mL.
